Values quoted from earlier work as cited in PubChem BioAssay AID1259409 (Chemical Carcinogenesis Research Information System (CCRIS), 2018).

System: rodent chemically induced tumor inhibition, incidence and multiplicity
Assay: CCRIS tumor inhibitor studies
Settings: Route [Inhibitor]: ORAL, Species: HAMSTER

Structure (SMILES): CC1=C(/C=C/C(C)=C/C=C/C(C)=C/C(=O)Nc2ccc(O)cc2)C(C)(C)CCC1
- tumour outcome (control, treated, inhibition, significance) (Carcinogen: N-NITROSOBIS(2-OXOPROPLYL)AMINE [60599-38-4], DL-ETHIONINE [67-21-0], L-METHIONINE [63-68-3], Carcinogen: N-NITROSOBIS(2-OXOPROPLYL)AMINE [60599-38-4], DL-ETHIONINE [67-21-0], L-METHIONINE [63-68-3], Dose [Inhibitor]: 0, 0.01% IN DIET FOR 55 D BEGINNING ON DAY 50, 1 WK POST LAST CARCINOGEN DOSE (STUDY DURATION: 105 D), Target Tissue: Type of Lesion: PANCREATIC DUCT, CARCINOMA, Dose [Carcinogen]: 50 MG/KG BOP ONCE ON DAY 0, THEN 20 MG/KG TWICE ON DAYS 18 AND 32, 500 MG/KG DL-ETHIONINE 1X/D FOR 4 D BEGINNING ON DAY, Dose [Carcinogen]: 50 MG/KG BOP ONCE ON DAY 0, THEN 20 MG/KG TWICE ON DAYS 18 AND 32, 500 MG/KG DL-ETHIONINE 1X/D FOR 4 D BEGINNING ON DAY, Promoter: CHOLINE-DEFICIENT DIET): 17/17 (100%), 17/17 (100%), 0%, not significant
- tumour outcome (control, treated, inhibition, significance) (Carcinogen: N-NITROSOBIS(2-OXOPROPLYL)AMINE [60599-38-4], DL-ETHIONINE [67-21-0], L-METHIONINE [63-68-3], Carcinogen: N-NITROSOBIS(2-OXOPROPLYL)AMINE [60599-38-4], DL-ETHIONINE [67-21-0], L-METHIONINE [63-68-3], Dose [Inhibitor]: 0, 0.04% IN DIET FOR 55 D BEGINNING ON DAY 50, 1 WK POST LAST CARCINOGEN DOSE (STUDY DURATION: 105 D), Target Tissue: Type of Lesion: LIVER: INTRAHEPATIC CHOLANGIOCARCINOMA, Dose [Carcinogen]: 50 MG/KG BOP ONCE ON DAY 0, THEN 20 MG/KG TWICE ON DAYS 18 AND 32, 500 MG/KG DL-ETHIONINE 1X/D FOR 4 D BEGINNING ON DAY, Dose [Carcinogen]: 50 MG/KG BOP ONCE ON DAY 0, THEN 20 MG/KG TWICE ON DAYS 18 AND 32, 500 MG/KG DL-ETHIONINE 1X/D FOR 4 D BEGINNING ON DAY, Promoter: CHOLINE-DEFICIENT DIET): 7/17 (41%), 14/15 (93%), -127%, p<0.01
- tumour outcome (control, treated, inhibition, significance) (Carcinogen: N-NITROSOBIS(2-OXOPROPLYL)AMINE [60599-38-4], DL-ETHIONINE [67-21-0], L-METHIONINE [63-68-3], Carcinogen: N-NITROSOBIS(2-OXOPROPLYL)AMINE [60599-38-4], DL-ETHIONINE [67-21-0], L-METHIONINE [63-68-3], Dose [Inhibitor]: 0, 0.04% IN DIET FOR 55 D BEGINNING ON DAY 50, 1 WK POST LAST CARCINOGEN DOSE (STUDY DURATION: 105 D), Target Tissue: Type of Lesion: PANCREATIC DUCT, CARCINOMA, Dose [Carcinogen]: 50 MG/KG BOP ONCE ON DAY 0, THEN 20 MG/KG TWICE ON DAYS 18 AND 32, 500 MG/KG DL-ETHIONINE 1X/D FOR 4 D BEGINNING ON DAY, Dose [Carcinogen]: 50 MG/KG BOP ONCE ON DAY 0, THEN 20 MG/KG TWICE ON DAYS 18 AND 32, 500 MG/KG DL-ETHIONINE 1X/D FOR 4 D BEGINNING ON DAY, Promoter: CHOLINE-DEFICIENT DIET): 17/17 (100%), 15/15 (100%), 0%, not significant
- tumour outcome (control, treated, inhibition, significance) (Carcinogen: N-NITROSOBIS(2-OXYPROPYL)AMINE, 60599-38-4, Dose [Inhibitor]: 0.05, 0.1 OR 0.2 MILLIMOLAR/KG DIET FOR 32 WK STARTING 1 WK AFTER THE CARCINOGEN DOSE (STUDY DURATION: 33 WK), Strain/Sex: SYRIAN/FEMALE, Target Tissue: Type of Lesion: COMMON DUCT: ADENOMA, Dose [Carcinogen]: 40 MG/KG ONCE, Promoter: NONE USED): 4/10 (40%), 26/30 (87%), -118%, p<0.025
- tumour outcome (control, treated, inhibition, significance) (Carcinogen: N-NITROSOBIS(2-OXYPROPYL)AMINE, 60599-38-4, Dose [Inhibitor]: 0.05, 0.1 OR 0.2 MILLIMOLAR/KG DIET FOR 32 WK STARTING 1 WK AFTER THE CARCINOGEN DOSE (STUDY DURATION: 33 WK), Strain/Sex: SYRIAN/FEMALE, Target Tissue: Type of Lesion: GALL BLADDER: ADENOMA, Dose [Carcinogen]: 40 MG/KG ONCE, Promoter: NONE USED): 6/10 (60%), 29/30 (97%), -62%, not significant
- tumour outcome (control, treated, inhibition, significance) (Carcinogen: N-NITROSOBIS(2-OXYPROPYL)AMINE, 60599-38-4, Dose [Inhibitor]: 0.05, 0.1 OR 0.2 MILLIMOLAR/KG DIET FOR 32 WK STARTING 1 WK AFTER THE CARCINOGEN DOSE (STUDY DURATION: 33 WK), Strain/Sex: SYRIAN/FEMALE, Target Tissue: Type of Lesion: LIVER: ADENOMA, Dose [Carcinogen]: 40 MG/KG ONCE, Promoter: NONE USED): 6/10 (60%), 10/30 (33%), 45%, not significant
- tumour outcome (control, treated, inhibition, significance) (Carcinogen: N-NITROSOBIS(2-OXYPROPYL)AMINE, 60599-38-4, Dose [Inhibitor]: 0.05, 0.1 OR 0.2 MILLIMOLAR/KG DIET FOR 32 WK STARTING 1 WK AFTER THE CARCINOGEN DOSE (STUDY DURATION: 33 WK), Strain/Sex: SYRIAN/FEMALE, Target Tissue: Type of Lesion: LUNG: ADENOMA, Dose [Carcinogen]: 40 MG/KG, ONCE, ONE WK PRIOR TO START OF AGENT TREATMENT, Promoter: NONE USED): 3/10 (30%), 18/30 (60%), -100%, not significant
- tumour outcome (control, treated, inhibition, significance) (Carcinogen: N-NITROSOBIS(2-OXYPROPYL)AMINE, 60599-38-4, Dose [Inhibitor]: 0.05, 0.1 OR 0.2 MILLIMOLAR/KG DIET FOR 32 WK STARTING 1 WK AFTER THE CARCINOGEN DOSE (STUDY DURATION: 33 WK), Strain/Sex: SYRIAN/FEMALE, Target Tissue: Type of Lesion: PANCREAS: ADENOMA, Dose [Carcinogen]: 40 MG/KG ONCE, Promoter: NONE USED): 10/10 (100%), 30/30 (100%), 0%, not significant
- tumour outcome (control, treated, inhibition, significance) (Carcinogen: N-NITROSOBIS(2-OXYPROPYL)AMINE, 60599-38-4, Dose [Inhibitor]: 0.05, 0.1 OR 0.2 MILLIMOLAR/KG DIET FOR 32 WK STARTING 1 WK AFTER THE CARCINOGEN DOSE (STUDY DURATION: 33 WK), Strain/Sex: SYRIAN/FEMALE, Target Tissue: Type of Lesion: PANCREAS: CARCINOMA, Dose [Carcinogen]: 40 MG/KG ONCE, Promoter: NONE USED): 4/10 (40%), 16/30 (53%), -33%, not significant
- tumour outcome (control, treated, inhibition, significance) (Carcinogen: N-NITROSOBIS(2-OXYPROPYL)AMINE, 60599-38-4, Dose [Inhibitor]: 0.05, 0.1 OR 0.2 MILLIMOLAR/KG DIET FOR 32 WK STARTING 1 WK AFTER THE CARCINOGEN DOSE (STUDY DURATION: 33 WK), Strain/Sex: SYRIAN/MALE, Target Tissue: Type of Lesion: COMMON DUCT: ADENOMA, Dose [Carcinogen]: 40 MG/KG ONCE, Promoter: NONE USED): 4/12 (33%), 20/21 (95%), -188%, not significant
- tumour outcome (control, treated, inhibition, significance) (Carcinogen: N-NITROSOBIS(2-OXYPROPYL)AMINE, 60599-38-4, Dose [Inhibitor]: 0.05, 0.1 OR 0.2 MILLIMOLAR/KG DIET FOR 32 WK STARTING 1 WK AFTER THE CARCINOGEN DOSE (STUDY DURATION: 33 WK), Strain/Sex: SYRIAN/MALE, Target Tissue: Type of Lesion: GALL BLADDER: ADENOMA, Dose [Carcinogen]: 40 MG/KG ONCE, Promoter: NONE USED): 3/12 (25%), 20/21 (95%), -280%, not significant
- tumour outcome (control, treated, inhibition, significance) (Carcinogen: N-NITROSOBIS(2-OXYPROPYL)AMINE, 60599-38-4, Dose [Inhibitor]: 0.05, 0.1 OR 0.2 MILLIMOLAR/KG DIET FOR 32 WK STARTING 1 WK AFTER THE CARCINOGEN DOSE (STUDY DURATION: 33 WK), Strain/Sex: SYRIAN/MALE, Target Tissue: Type of Lesion: LIVER: ADENOMA, Dose [Carcinogen]: 40 MG/KG ONCE, Promoter: NONE USED): 6/12 (50%), 7/21 (33%), 34%, not significant
